Test results: patent US4868195A, “Novel enolamides, pharmaceutical compositions and methods of use thereof for activity as modulators of the arachidonic acid cascade” (Warner-Lambert Company, priority 1988, dated 1989)

Target: Human Leukocyte Lipoxygenase
Experiment: Human Leukocyte Lipoxygenase Assay (LDA-H)
Type: biochemical
Conditions: for IC50: acetone-pentane powder enzyme, 234 nm, 24° C., 5 min preincubation, read-out: Concentration (M) for 50.0 % Inhibition, IC (LDAH); for % Inhibition (LDAH): Concentration 2.50 E -5 M
Summary of the method: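 Enzyme from acetone-pentane powder of human buffy-coat leukocytes, extracted in 0.1M Tris pH 7.4. Compound preincubated 5 min with enzyme, then reaction started with arachidonic or linoleic acid (100 μM or 1.0 μM) and followed at 234 nm (conjugated diene) at 24° C. IC50 is molar concentration halving control rate.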

Compound	IC50 [M]	% Inhibition (LDAH) [%]
O=C(Nc1ccc(CCc2ccccc2)cc1)C1CS(=O)(=O)c2ccccc2C1=O (centres unmarked) [Example 16, 3,4-Dihydro-4-oxo-N-[(4-(2-phenyl)ethyl]-phenyl]-2H-1-benzothiopyran-3-carboxamide, 1,1-dioxide]	5.1e-05	–
COc1ccc(CCc2ccc(NC(=O)C3CS(=O)(=O)c4ccccc4C3=O)cc2)cc1 (centres unmarked) [Example 41]	4.5e-05	–
O=C(Nc1ccc(CCc2ccc(-c3ccccc3)cc2)cc1)C1CS(=O)(=O)c2ccccc2C1=O (centres unmarked) [Example 46, N-[4-[2-([1,1'-biphenyl]-4-yl)ethyl]phenyl]-3,4-dihydro-4-oxo-2H-1-benzothiopyran-3-carboxamide, 1,1-dioxide]	1.1e-05	–
CCCCOc1ccc(CCc2ccc(NC(=O)C3CS(=O)(=O)c4ccccc4C3=O)cc2)cc1 (centres unmarked) [Example 48]	–	0.0
O=C(Nc1ccc(CCc2ccc3ccccc3c2)cc1)C1=C(O)c2ccccc2S(=O)(=O)C1 [Example 51, 4-Hydroxy-N-[4-[2-(2-naphthalenyl)ethyl]phenyl]-2H-1-benzothiopyran-3-carboxamide, 1,1-dioxide]	–	0.0
O=C(Nc1ccc(CCc2ccc(Cl)cc2)cc1)C1CS(=O)(=O)c2ccccc2C1=O (centres unmarked) [Example 54, N-[4-[2-(4-Chlorophenyl)ethyl]phenyl]-3,4-dihydro-4-oxo-2H-1-benzothiopyran-3-carboxamide, 1,1-dioxide]	3.5e-06	–
CCCCCCCCCCc1ccc(NC(=O)C2CS(=O)(=O)c3ccccc3C2=O)cc1 (centres unmarked) [Example 60, N-(4-Decylphenyl)-3,4-dihydro-4-oxo-2H-1-benzoothiopyran-3-carboxamide, 1,1-dioxide]	2.5e-05	–
COc1ccc(CCc2ccc(NC(=O)c3sc4ccccc4c3O)cc2)cc1OC [Example 143, Benzo[b]thiophene-2-carboxamide, N-[4-[2-(3,4-dimethoxphenyl)ethyl]phenyl]-3-hydroxy]	4.4e-06	–
